According to patent US20250170265A1 (priority 2023, published 2025):
Several values for one entry are separate records, joined by “and”; a condition that tells them apart may be missing. Equal values may be shown once. Read-outs that look alike come from different tables or passages of the source.

What was measured:
pBR322 = type: biochemical
[1] = system: supercoiled pBR322 plasmid DNA; type: biochemical
[2] = Stability of diazonium compounds (NMR in D2O with acetonitrile internal standard); type: physicochemical
[3] = system: supercoiled pBR322 plasmid DNA; conditions: read-out: EC50 value
[4] = system: supercoiled pBR322 plasmid DNA; conditions: for EC50: 525 nm
[5] = system: linearized (EcoRV-HF-digested) pBR322 double stranded DNA
[6] = system: supercoiled pBR322 plasmid DNA

Experimental for HeLa cells: General cell culture protocol: HeLa cells were grown in DMEM growth media (GIBCO 11995065) with 10% FBS (GIBCO A5670401) in 75 cm^2 surface treated culture dishes (Fisherbrand FB012937) and were incubated in a cell culture chamber (37° C. with 5% CO2). Cells were kept at a maximum confluency of 80% and passaged up to 20 times. For each passage, the cells were washed with 1×PBS (GIBCO 20012027), detached from the plate by incubation with 0.25% Trypsin-EDTA (GIBCO 25200072) for 3-4 minutes in the cell culture chamber, and then diluted with growth media. The cells were spun down at 300×g at 4° C. for 5 minutes, resuspended with fresh growth media, and replated in a new flask.
Cell viability assay and IC50 procedure: The media in the cell culture dish was aspirated, and the cells were washed with 1×PBS. The cells were detached from the plate by 4-minute incubation with 0.25% Trypsin-EDTA in the cell culture chamber. The cells were then diluted with DMEM and were spun down at 300×g at 4° C. for 5 minutes. The media was aspirated, and the cell pellet was resuspended in fresh DMEM. The cells were counted and seeded in 6-well culture plates at 50,000 cells/well and incubated overnight. Alongside the 6-well plates, 35 mm glass bottom confocal plates (Fisher Scientific NC0409658) were also seeded with 50,000 cells/plate. 24 hours after the initial seeding, the media in the plates were aspirated and the cells were washed with 1×PBS. […] The wash buffer was aspirated from the plates and 2 mL of the corresponding diazonium dilutions was added to the respective wells in the 6-well plates, all in triplicate, in addition to the confocal plates. All plates were incubated in ambient light for 45 minutes in the cell culture hood and then for 1 hour in the cell culture chamber (37° C. with 5% CO2). Control wells with 2 mL 1×PBS pH 6.6 alone with no diazonium as well as additional control wells with 2 mL DMEM alone with no diazonium, all in triplicate, were also incubated alongside the wells with the diazonium solutions. The plates were then removed from the incubators and the solutions from all the dishes were aspirated and replaced with 2 mL of fresh DMEM. The plates were incubated in the cell culture chamber for 3 days. After the 3-day incubation, the respective cell viability of each well was measured using the PrestoBlue™ Cell Viability Procedure. To each well was added 200 μL of 10× PrestoBlue™ Cell Viability Reagent (ThermoFisher Scientific A13261) and the plates were then incubated in the cell culture chamber for 3 hours. The plates were then analyzed using a plate reader (SpectraMax iD5) by measuring the fluorescence at an excitation of 560 nm and emission of 590 nm. […]

Nc1cccc2c(N)cccc12 [1,5-diaminonaphthalene, reference compound]
cleavage of pBR322 (gel pattern) (pBR322): no cleavage was observed

F[B-](F)(F)F.N#[N+]c1ccccc1 [Compound 1, benzenediazonium tetrafluoroborate]
DNA cleavage potency (in words) [1]: limited activity
EC50 ([1]; read-out: EC50): 18800 nM

COc1ccc([N+]#N)cc1.F[B-](F)(F)F [Compound 5, 4-methoxy-benzene-1-diazonium tetrafluoroborate]
EC50 ([1]; read-out: EC50 value): 69800 nM

N#[N+]c1ccc([N+](=O)[O-])c2ccccc12 [Compound 7, 4-nitro-naphthalene-1-diazonium tetrafluoroborate]
EC50 ([1]; read-out: EC50 value): 531 nM

F[B-](F)(F)F.F[B-](F)(F)F.N#[N+]c1cccc2c([N+]#N)cccc12 [Compound 10, naphthalene-1,5-bisdiazonium tetrafluoroborate]
cleavage of pBR322 (gel pattern) (pBR322; 500 nM, 525 nm irradiation 1.5 hours): two new bands
EC50 ([1]; read-out: EC50 value): 31.7 nM
diazonium/IS ratio ([2]; 1 hour): 0.59
diazonium/IS ratio ([2]; 2 hours): 0.56
diazonium/IS ratio ([2]; 6 hours): 0.49
diazonium/IS ratio ([2]; 24 hours): 0.41
diazonium/IS ratio ([2]; T0 (immediately after sample preparation)): 0.62

(R)-[1,1′-binaphthalene]-2,2′-bisdiazonium tetrafluoroborate [Compound 23]
EC50 ([1]; read-out: EC50 value): 42 nM

(S)-[1,1′-binaphthalene]-2,2′-bisdiazonium tetrafluoroborate [Compound 24]
EC50 ([1]; read-out: EC50 value): 140 nM

N^1,N^3,N^5-tris(benzene-4-diazonium)benzene-1,3,5-tricarboxamide tetrafluoroborate [Compound 29]
DNA cleavage potency (in words) [1]: no notable improvement
EC50 ([1]; read-out: EC50 value): 101 nM

benzophenone-3,3′-bisdiazonium tetrafluoroborate [Compound 18]
EC50 ([1]; read-out: EC50 value): 31.5 nM

benzophenone-4,4′-bisdiazonium tetrafluoroborate [Compound 17]
EC50 ([1]; read-out: EC50 value): 24 nM

ethidium bisdiazonium tetrafluoroborate [Compound 26]
DNA cleavage potency (in words) [1]: only modest potency
EC50 ([1]; read-out: EC50 value): 136 nM

tetrakis(benzene-4-diazonium)ethylene tetrafluoroborate [Compound 27]
DNA cleavage potency (in words) [1]: excellent potency
EC50 ([1]; read-out: EC50 value): 33 nM

tetrakis(benzene-4-diazonium)methane tetrafluoroborate [Compound 28]
plate confluency after 3 days (HeLa cells; 1.25 μM): over 90%
plate confluency after 3 days (HeLa cells; 10 μM): less than 10%
IC50 (cell viability) (HeLa cells; ambient light 45 min then 1 h at 37° C., 3-day incubation): 5.23 µg/mL
IC50 (HeLa cells; read-out: IC50 (cell viability), ambient light 45 min then 1 h at 37° C., 3-day incubation): 6710 nM
EC50 [3]: 3.62 nM and 13.7 nM and 14.9 nM
decrease in activity, degassed vs standard deionized water [4]: 2 log scale
EC50 ([4]; degassed deionized water): 172 nM
EC50 ([4]; standard deionized water, run alongside as control): 1.64 nM
DNA cleavage potency (in words) [1]: excellent potency
EC50 [1]: 0.00214 µg/mL
EC50 ([1]; read-out: EC50 value): 2.76 nM
concentrations giving noticeable cleavage into low molecular weight fragments ([5]; pre-linearized pBR322 (Form III, 40 μM/bp), 525 nm light in water for 1 hour): ≥ 100 nM
EC50 ([5]; read-out: EC50 value, linearized pBR322, green light 525 nm, supercoiled pBR322 as internal standard): 126 nM
EC50 ([6]; read-out: DNA cleavage EC50 value, in the dark without cysteine): 976 nM and ~1000 nM and 1000 nM
EC50 ([6]; read-out: EC50 value, presence of cysteine in the dark): 30.8 nM
